The text below walks through data of ChEMBL document CHEMBL1137636, “Genetic characteristics and clonal dissemination of beta-lactamase-negative ampicillin-resistant Haemophilus influenzae strains isolated from the upper respiratory tract of patients in Japan” (2007).

What all share (format): functional
In experiment [1] the test system is Haemophilus influenzae. The experiment in a line: Antibacterial activity against genetically beta-lactamase-negative ampicillin-resistant Haemophilus influenzae type b with an amino acid substitution in highly mutated locus Ser-385 of ftsI gene by broth microdilution method. (In broth dilution the organism is exposed to a series of concentrations in liquid medium.)

The subject of experiment [2] is Haemophilus influenzae. Briefly: Antibacterial activity against genetically beta-lactamase-negative ampicillin-susceptible Haemophilus influenzae type b without amino acid substitutions in ftsI gene and bla gene assessed as susceptibility rate by broth microdilution method.
The subject of experiment [3] is Haemophilus influenzae. The experiment in a line: Antibacterial activity against genetically beta-lactamase-negative ampicillin-susceptible Haemophilus influenzae type b without amino acid substitutions in ftsI gene and bla gene by broth microdilution method.
In experiment [4] the test system is Haemophilus influenzae. Briefly: Antibacterial activity against genetically beta-lactamase-negative ampicillin-resistant Haemophilus influenzae type b with an amino acid substitution in highly mutated locus Ser-385 of ftsI gene assessed as resistance rate by broth microdilution method.
The test system of experiment [5] is Haemophilus influenzae. The experiment in a line: Antibacterial activity against genetically beta-lactamase-negative ampicillin-resistant Haemophilus influenzae type b with an amino acid substitution in highly mutated locus Ser-385 of ftsI gene assessed as susceptibility rate by broth microdilution method.
The subject of experiment [6] is Haemophilus influenzae. The experiment in a line: Antibacterial activity against genetically beta-lactamase-negative ampicillin-resistant Haemophilus influenzae type b with an amino acid substitution in variable mutated locus Asn-526 or Arg-517 of ftsI gene assessed as susceptibility rate by broth microdilution method.
Experiment [7] has as its system Haemophilus influenzae. The experiment in a line: Antibacterial activity against genetically beta-lactamase-negative ampicillin-resistant Haemophilus influenzae type b with an amino acid substitution in variable mutated locus Asn-526 or Arg-517 of ftsI gene by broth microdilution method.
Experiment [8] concerns Haemophilus influenzae. The experiment in a line: Antibacterial activity against genetically beta-lactamase-negative ampicillin-resistant Haemophilus influenzae type b with an amino acid substitution in variable mutated locus Asn-526 or Arg-517 of ftsI gene assessed as resistance rate by broth microdilution method.
The subject of experiment [9] is Haemophilus influenzae. The experiment in a line: Antibacterial activity against genetically beta-lactamase-negative ampicillin-susceptible Haemophilus influenzae type b without amino acid substitutions in ftsI gene and bla gene assessed as resistance rate by broth microdilution method.
Experiment [10] concerns Haemophilus influenzae. Briefly: Antibacterial activity against genetically […] but without an amino acid substitution in ftsI gene assessed as susceptibility rate by broth microdilution method.
Experiment [11] concerns Haemophilus influenzae. Briefly: Antibacterial activity against genetically beta-lactamase-positive amoxicillin-clavulanate-resistant Haemophilus influenzae type b with an amino acid substitution in highly mutated locus Ser-385 of ftsI gene assessed as resistance rate by broth microdilution method.
For experiment [12], the system named is Haemophilus influenzae. The experiment in a line: Antibacterial activity against beta-lactamase-negative ampicillin-resistant Haemophilus influenzae by Etest.
Experiment [13] has as its system Haemophilus influenzae. Briefly: Antibacterial activity against beta-lactamase-negative ampicillin-resistant Haemophilus influenzae with mutation in AcrAB repressor gene […].
Experiment [14] deals with Haemophilus influenzae. The experiment in a line: Antibacterial activity against genetically […] but without an amino acid substitution in ftsI gene by broth microdilution method.
Experiment [15] concerns Haemophilus influenzae. Briefly: Antibacterial activity against genetically […] but without an amino acid substitution in ftsI gene assessed as resistance rate by broth microdilution method.
Experiment [16] concerns Haemophilus influenzae. The experiment in a line: Antibacterial activity against genetically beta-lactamase-positive amoxicillin-clavulanate-resistant Haemophilus influenzae type b with an amino acid substitution in variable mutated locus Asn-526 or Arg-517 of ftsI gene by broth microdilution method.
The subject of experiment [17] is Haemophilus influenzae. The experiment in a line: Antibacterial activity against genetically beta-lactamase-positive amoxicillin-clavulanate-resistant Haemophilus influenzae type b with an amino acid substitution in highly mutated locus Ser-385 of ftsI gene by broth microdilution method.
Experiment [18] deals with Haemophilus influenzae. The experiment in a line: Antibacterial activity against genetically beta-lactamase-positive amoxicillin-clavulanate-resistant Haemophilus influenzae type b with an amino acid substitution in variable mutated locus Asn-526 or Arg-517 of ftsI gene assessed as susceptibility rate by broth microdilution method.
The test system of experiment [19] is Haemophilus influenzae. The experiment in a line: Antibacterial activity against genetically beta-lactamase-positive amoxicillin-clavulanate-resistant Haemophilus influenzae type b with an amino acid substitution in highly mutated locus Ser-385 of ftsI gene assessed as susceptibility rate by broth microdilution method.
Experiment [20] relates to Haemophilus influenzae. The experiment in a line: Antibacterial activity against genetically beta-lactamase-positive amoxicillin-clavulanate-resistant Haemophilus influenzae type b with an amino acid substitution in variable mutated locus Asn-526 or Arg-517 of ftsI gene assessed as resistance rate by broth microdilution method.

≈ marks a conversion by molar mass, not a printed value. Bounds are passed on as bounds.

Turning to `CC[C@H]1OC(=O)[C@H](C)[C@@H](O[C@H]2C[C@@](C)(OC)[C@@H](O)[C@H](C)O2)[C@H](C)[C@@H](O[C@@H]2O[C@H](C)C[C@H](N(C)C)[C@H]2O)[C@](C)(O)C[C@@H](C)CN(C)[C@H](C)[C@@H](O)[C@]1(C)O` [AZITHROMYCIN], the MIC50 with Haemophilus influenzae [1], against Haemophilus influenzae [3] and with Haemophilus influenzae [7] was 2 µg/mL (≈ 2.67 µM) each time. For the same compound, the MIC90 against Haemophilus influenzae [1], against Haemophilus influenzae [3] and against Haemophilus influenzae [7] was 4 µg/mL (≈ 5.34 µM) throughout. The Activity with Haemophilus influenzae [2] came out at 98.8%; in the experiment with Haemophilus influenzae [4], 2.7%; with Haemophilus influenzae [5], 97.3%; in the experiment on Haemophilus influenzae [6], 95.9%; in the experiment on Haemophilus influenzae [8], 4.1%; in the experiment with Haemophilus influenzae [9] it was 1.2%.
Take `CC[C@H]1OC(=O)[C@H](C)[C@@H](O[C@H]2C[C@@](C)(OC)[C@@H](O)[C@H](C)O2)[C@H](C)[C@@H](O[C@@H]2O[C@H](C)C[C@H](N(C)C)[C@H]2O)[C@](C)(OC)C[C@@H](C)C(=O)[C@H](C)[C@@H](O)[C@]1(C)O` [CLARITHROMYCIN]: the MIC50 in the experiment on Haemophilus influenzae [1], with Haemophilus influenzae [3] and against Haemophilus influenzae [7] was 8 µg/mL (≈ 10.7 µM) throughout. Further, the MIC90 against Haemophilus influenzae [1], in the experiment with Haemophilus influenzae [3] and against Haemophilus influenzae [7] was 16 µg/mL (≈ 21.4 µM) throughout. Moreover, the Activity in the experiment on Haemophilus influenzae [2] turned out to be 79.3%; with Haemophilus influenzae [4], 0%; in the experiment with Haemophilus influenzae [5] it was 60.8%; in the experiment with Haemophilus influenzae [6], 75.5%; with Haemophilus influenzae [8], 2%; in the experiment with Haemophilus influenzae [9], 3.5%.
As to `CO/N=C(\C(=O)N[C@@H]1C(=O)N2C(C(=O)O)=C(COC(N)=O)CS[C@H]12)c1ccco1` [CEFUROXIME], the MIC50 in the experiment on Haemophilus influenzae [1] was found to be 64 µg/mL (≈ 151 µM); in the experiment with Haemophilus influenzae [3], 1 µg/mL (≈ 2.36 µM); with Haemophilus influenzae [7] it was 2 µg/mL (≈ 4.71 µM). Moreover, the values for the MIC90 against Haemophilus influenzae [1], in the experiment with Haemophilus influenzae [3] and in the experiment on Haemophilus influenzae [7] were 128 µg/mL (≈ 302 µM), 2 µg/mL (≈ 4.71 µM) and 16 µg/mL (≈ 37.7 µM), respectively. Also, the Activity with Haemophilus influenzae [2] was found to be 97.7%; in the experiment on Haemophilus influenzae [4], 94.6%; in the experiment on Haemophilus influenzae [5] it was 1.4%; in the experiment on Haemophilus influenzae [6], 66.3%; in the experiment with Haemophilus influenzae [8] it was 21.4%; in the experiment with Haemophilus influenzae [9], 1.2%.
Take `CC[C@H]1OC(=O)[C@H](C)C(=O)[C@H](C)[C@@H](O[C@@H]2O[C@H](C)C[C@H](N(C)C)[C@H]2O)[C@](C)(OC)C[C@@H](C)C(=O)[C@H](C)[C@H]2N(CCCCn3cnc(-c4cccnc4)c3)C(=O)O[C@]12C` [TELITHROMYCIN]: the MIC50 with Haemophilus influenzae [1], against Haemophilus influenzae [3] and against Haemophilus influenzae [7] was 2 µg/mL (≈ 2.46 µM) throughout. Besides, the MIC90 in the experiment on Haemophilus influenzae [1], with Haemophilus influenzae [3] and against Haemophilus influenzae [7] was 4 µg/mL (≈ 4.93 µM) in each case. The Activity is recorded as 97.7% with Haemophilus influenzae [2]; 0% in the experiment on Haemophilus influenzae [4]; 87.8% with Haemophilus influenzae [5]; 93.9% in the experiment on Haemophilus influenzae [6]; 0% with Haemophilus influenzae [8]; 0% in the experiment with Haemophilus influenzae [9].
With `CC1(C)S[C@@H]2[C@H](NC(=O)[C@H](N)c3ccccc3)C(=O)N2[C@H]1C(=O)O` [AMPICILLIN], the Activity in the experiment on Haemophilus influenzae [10] stood at 0%; in the experiment with Haemophilus influenzae [11], 100%; in the experiment with Haemophilus influenzae [2], 100%; with Haemophilus influenzae [15], 100%; in the experiment on Haemophilus influenzae [4], 71.6%; in the experiment with Haemophilus influenzae [18] it was 0%. For the same compound, the Activity in the experiment on Haemophilus influenzae [5] was determined as 9.5%; in the experiment with Haemophilus influenzae [6], 68.4%; in the experiment with Haemophilus influenzae [19] it was 0%; in the experiment with Haemophilus influenzae [8], 8.1%; in the experiment on Haemophilus influenzae [9] it was 0%; in the experiment with Haemophilus influenzae [20] it was 100%. Besides, the MIC against Haemophilus influenzae [12] worked out at 256 µg/mL (≈ 733 µM); with Haemophilus influenzae [13], 8 µg/mL (≈ 22.9 µM). The MIC50 against Haemophilus influenzae [14] was 64 µg/mL (≈ 183 µM); against Haemophilus influenzae [1], 4 µg/mL (≈ 11.4 µM); in the experiment with Haemophilus influenzae [3], 0.5 µg/mL (≈ 1.43 µM); in the experiment with Haemophilus influenzae [16], 128 µg/mL; with Haemophilus influenzae [17] it was greater than 128 µg/mL; against Haemophilus influenzae [7], 0.5 µg/mL (≈ 1.43 µM). The MIC90 with Haemophilus influenzae [14] is greater than 128 µg/mL; against Haemophilus influenzae [1], 16 µg/mL (≈ 45.8 µM); with Haemophilus influenzae [3], 0.5 µg/mL (≈ 1.43 µM); in the experiment on Haemophilus influenzae [16], 128 µg/mL; with Haemophilus influenzae [17] it was greater than 128 µg/mL; in the experiment on Haemophilus influenzae [7] it was 2 µg/mL (≈ 5.72 µM).
Take `C[C@H]1COc2c(N3CCN(C)CC3)c(F)cc3c(=O)c(C(=O)O)cn1c23.C[C@H]1COc2c(N3CCN(C)CC3)c(F)cc3c(=O)c(C(=O)O)cn1c23.O` [LEVOFLOXACIN]: the MIC50 with Haemophilus influenzae [1], against Haemophilus influenzae [3] and against Haemophilus influenzae [7] was no more than 0.06 µg/mL throughout. The MIC90 in the experiment with Haemophilus influenzae [1], in the experiment with Haemophilus influenzae [3] and with Haemophilus influenzae [7] was no more than 0.06 µg/mL in each case. Moreover, the Activity with Haemophilus influenzae [2] is 100%; with Haemophilus influenzae [4] it was 0%; with Haemophilus influenzae [5] it was 100%; in the experiment on Haemophilus influenzae [6], 100%; in the experiment with Haemophilus influenzae [8] it was 0%; in the experiment with Haemophilus influenzae [9], 0%.
Turning to `C[C@@H](O)[C@H]1C(=O)N2C(C(=O)O)=C(S[C@@H]3CN[C@H](C(=O)N(C)C)C3)[C@H](C)[C@H]12` [MEROPENEM], the MIC50 was 0.25 µg/mL (≈ 0.652 µM) against Haemophilus influenzae [1], no more than 0.06 µg/mL in the experiment with Haemophilus influenzae [3] and 0.12 µg/mL (≈ 0.313 µM) with Haemophilus influenzae [7]. For the same compound, the values for the MIC90 with Haemophilus influenzae [1], against Haemophilus influenzae [3] and in the experiment with Haemophilus influenzae [7] were 0.5 µg/mL (≈ 1.3 µM), no more than 0.06 µg/mL and 0.25 µg/mL (≈ 0.652 µM), respectively. Also, the Activity in the experiment on Haemophilus influenzae [2] turned out to be 100%; with Haemophilus influenzae [4] it was 9.5%; with Haemophilus influenzae [5], 90.5%; in the experiment with Haemophilus influenzae [6], 100%; in the experiment with Haemophilus influenzae [8], 0%; in the experiment with Haemophilus influenzae [9], 0%.
Take `COCC1=C(C(=O)O)N2C(=O)[C@@H](NC(=O)/C(=N\OC)c3csc(N)n3)[C@H]2SC1` [CEFPODOXIME]: the values for the MIC50 against Haemophilus influenzae [1], against Haemophilus influenzae [3] and against Haemophilus influenzae [7] were 8 µg/mL (≈ 18.7 µM), 0.12 µg/mL (≈ 0.281 µM) and 0.25 µg/mL (≈ 0.585 µM), respectively. Besides, the MIC90 was determined as 16 µg/mL (≈ 37.4 µM) with Haemophilus influenzae [1], 0.12 µg/mL (≈ 0.281 µM) in the experiment with Haemophilus influenzae [3] and 2 µg/mL (≈ 4.68 µM) in the experiment with Haemophilus influenzae [7]. Further, the Activity stood at 100% in the experiment on Haemophilus influenzae [2]; 91.9% with Haemophilus influenzae [4]; 9.1% with Haemophilus influenzae [5]; 90.8% in the experiment on Haemophilus influenzae [6]; 9.2% in the experiment on Haemophilus influenzae [8]; 0% with Haemophilus influenzae [9].
For `CO/N=C(\C(=O)N[C@@H]1C(=O)N2C(C(=O)OCOC(=O)C(C)(C)C)=C(/C=C\c3scnc3C)CS[C@H]12)c1csc(N)n1` [CEFDITOREN PIVOXIL], the MIC50 is 0.25 µg/mL (≈ 0.403 µM) against Haemophilus influenzae [1], no more than 0.06 µg/mL against Haemophilus influenzae [3] and no more than 0.06 µg/mL against Haemophilus influenzae [7]. For the same compound, the MIC90 in the experiment on Haemophilus influenzae [1] was 0.5 µg/mL (≈ 0.805 µM); against Haemophilus influenzae [3] it was no more than 0.06 µg/mL; with Haemophilus influenzae [7], 0.12 µg/mL (≈ 0.193 µM).
